Entries after “also recorded” stand apart in the source; their conditions may differ. Peptide text beside a SMILES is read from it.

The record followed here is PMC7363588, “Mapping of the FGF14:Nav1.6 complex interface reveals FLPK as a functionally active peptide modulating excitability” (Physiological Reports, 2020).

The assay concerns medium spiny neurons (MSNs) in the nucleus accumbens. Briefly: Brain slice patch-clamp: intrinsic excitability and passive properties of MSNs. Type of assay: cell-based, male C57BL6/J mice. Here is the method:
Brain slices from male C57BL6/J mice aged 28–45 days were prepared to contain the nucleus accumbens (NAc). Mice were anesthetized with Isoflurane (Baxter, Deerfield, IL) and brains extracted following decapitation. Brains were sliced with a vibratome (Leica Microsystems, Wetzlar, Germany) to achieve 300 μm coronal slices. Brains sliced in extracellular salts; consisting of the following (mM): Tris‐HCl 72, Tris‐Base18, NaH2PO4 1.2, KCl 2.5, HEPES 20, sucrose 20, NaHCO3 25, glucose 25, MgSO4 10, Na‐pyruvate 3, Na‐ascorbate 5 and CaCl2 0.5 (Sigma‐Aldrich, St. Louis, MO); 300–310 mOsm, pH 7.4 and was continuously oxygenated (mixture of 95%/5% O2/CO2). Slices were then placed in a 32°C recovery chamber with freshly prepared tris‐based aCSF for 15 min before transfer to a 32°C chamber of standard aCSF consisting of the following extracellular salts (mM): NaCl 123.9, KCl 3.1, glucose 10, MgCl2 1, CaCl2 2, NaHCO3 24, and NaH2PO4 1.16 (Sigma‐Aldrich, St. Louis, MO); 300–310 mOsm, pH 7.4 and continuously oxygenated (mixture of 95%/5% O2/CO2). Finally, slices were equilibrated at RT for at least 45 min. DMSO and/or FLPK were added to standard aCSF to achieve a bath concentration of 0.1% DMSO and 50 μM FLPK. Brain slices were incubated in a separate chamber with standard aCSF containing 0.1% DMSO (control) or 50 μM FLPK and continuously oxygenated for 30 min. Somatic recordings from NAc visually identified medium spiny neurons (MSNs) in standard aCSF were carried out at 31°C using borosilicate glass pipettes (resistance of 3–5 MΩ) filled with an internal solution containing (mM): D‐gluconate (potassium salt) 145, MgCl2 2, EGTA 0.1, Na2ATP 2, and HEPES 10 (pH 7.2; 290 mOsm). Either an Axopatch 200B or a Multiclamp 700B amplifier was used to perform whole‐cell patch clamp experiments. For the Axopatch 200B, a digidata 1,200 analog–digital interface and pClamp 9 software with filtering at 20 kHz and digitizing at 5 kHz were used for data acquisition and stimulation. For the Multiclamp 700B, a digidata 1,350 analog‐digital interface and pClamp 10.9 with filtering at 20 kHz and digitizing at 5 kHz were used for data acquisition and stimulation. First a giga‐seal was formed and the cell membrane ruptured after which MSNs were held in […] for 1 min to measure resting membrane potential. Next, MSNs were held in current clamp mode to assess cell activity. Evoked action potentials with a range of current injections from 10 pA to 220 pA with 800 ms every 10 pA were measured and number of action potentials, instantaneous frequency, and other electrical parameters were determined. Average instantaneous firing frequency (IFF) is defined as the average of all reciprocal interspike intervals (ms) at a particular current step. Cells with a current threshold above 180 pA, a resting membrane potential above −60 mV, and an input resistance outside the range of 70–250 MΩ were excluded. To isolate persistent Na^+ current (I NaP) in whole‐cell voltage‐clamp recordings, we used a modified aCSF containing 20 mM tetraethylammonium chloride (TEA) and 0.3 mM CdCl2. The voltage‐dependence of I NaP was determined using standard protocols (Yue, Remy, Su, Beck, & Yaari, 2005). Membrane capacitances and Rseries were compensated electronically. Series resistances (Rs) before compensation were in the range of 5–20 MΩ and were routinely corrected by 75%–85%. Data obtained from a given cell were rejected if Rs was larger than 20 MΩ or changed by > 20% during the course of the experiment. Membrane capacitance was calculated using the equation: capacitance = membrane time constant/input resistance (Meitzen, Weaver, Brenowitz, & Perkel, 2009). The membrane input resistance was measured by a series of 600 ms hyperpolarizing current steps from −50 to 0 pA, step 10 pA with 1 s interval. The slope of the current‐voltage curve was designated as the membrane input resistance. […]
In general terms: Patch clamp records ionic current or voltage across a cell membrane.

For `CC(=O)N[C@@H](Cc1ccccc1)C(=O)N[C@@H](CC(C)C)C(=O)N1CCC[C@H]1C(=O)N[C@@H](CCCCN)C(N)=O` [FLPK] (Ac-FLPK-NH2), the “effect on MSN firing and passive properties” value (50 µM FLPK vs 0.1% DMSO) was “significantly increased the number of evoked action potentials and the instantaneous firing frequency; also recorded: no changes in several other electrophysiological parameters including membrane potential and input resistance; also recorded: increase in the total number of action potentials as well as instantaneous firing frequency”. Further, the “Tau (τ), membrane time constant” value (50 µM FLPK, 30 min incubation, mean ± SEM, n = 5–12, DMSO 16.1 ± 2.1, p = .157) is recorded as 11.9 ± 1.6 ms. Further, the Cm (50 µM FLPK, 30 min incubation, mean ± SEM, n = 5–12, DMSO 90.2 ± 14.5, p = .521) turned out to be 80.1 ± 7.6 pF. The molecule also showed an Ithr (50 µM FLPK, 30 min incubation, mean ± SEM, n = 5–12, DMSO 110 ± 14.2, p = .221) of 78 ± 18.3 pA. This molecule also displayed a Rin (50 µM FLPK, 30 min incubation, mean ± SEM, n = 5–12, DMSO 119.1 ± 10.3, p = .088) of 147.2 ± 11.3 MΩ. The Vthr (50 µM FLPK, 30 min incubation, mean ± SEM, n = 5–12, DMSO −40.5 ± 1.1, p = .422) was −38.7 ± 2.2 mV. Moreover, under “50 µM FLPK, 30 min incubation, mean ± SEM, n = 5–12, DMSO −75.3 ± 1.5, p = .125”, the RMP is −79.7 ± 2.6 mV. In addition, the “number of evoked action potentials” value (50 µM FLPK, current step 180 pA, n = 7, DMSO 14.9 ± 2.3, n = 14, p < .016) turned out to be 23.7 ± 1.2. The instantaneous firing frequency (50 µM FLPK, current step 180 pA, n = 7, DMSO 19.7 ± 2.6 Hz, n = 14, p < .0395) was found to be 28.6 ± 2.1 Hz.
